Test results published in patent publication US9101567B2, “Suppression of cancer growth and metastasis using nordihydroguaiaretic acid derivatives with 7-hydroxystaurosporine” (The Johns Hopkins University, priority 2010, dated 2015).

Columns and labels:
LC3B-II [1] = experiment: Western blotting of LC3B-II (autophagy) in HepG2 cells; type: cell-based, human; settings: HepG2, 15 hrs; M4N 80 μM
Procedure: The sample volumes were adjusted by the total protein amount. Protein assay was performed by Bio-Rad Protein Assay (Bio-Rad Laboratories, Inc. Hercules, Calif.). The samples were resolved by the standard SDS-polyacrylamide gel electrophoresis and transferred to nitrocellulose membrane (Amersham Biosciences, Bjorkgatan, Sweden). The membranes were blocked with skim milk, and incubated with primary antibodies at 4° C. overnight and then with secondary antibody conjugated with horse radish peroxidase at room temperature for 2 hrs. The signals were detected by western blot chemiluminescence reagent plus (New England Nuclear Life Science Products, Boston, Mass.). The effect of […] on autophagy was examined using the western blotting for LC3B-II in the presence of Baflomycin A1 in MCF-7 and HepG2 cells (FIG. 4D).

LC3B-II [2] = experiment: Western blotting of LC3B-I&II (autophagy) in LNCaP cells; type: cell-based, human; settings: 18 hrs, in the presence of Baflomycin A1 (100 nM), M4N 80 μM
Procedure: The sample volumes were adjusted by the total protein amount. Protein assay was performed by Bio-Rad Protein Assay (Bio-Rad Laboratories, Inc. Hercules, Calif.). The samples were resolved by the standard SDS-polyacrylamide gel electrophoresis and transferred to nitrocellulose membrane (Amersham Biosciences, Bjorkgatan, Sweden). The membranes were blocked with skim milk, and incubated with primary antibodies at 4° C. overnight and then with secondary antibody conjugated with horse radish peroxidase at room temperature for 2 hrs. The signals were detected by western blot chemiluminescence reagent plus (New England Nuclear Life Science Products, Boston, Mass.).

[3] = human patients (reference 10); cited from earlier work
HIF1α = experiment: Western blotting of HIF1α in LNCaP cells under hypoxia; type: cell-based, human; settings: M4N 80 μM
Description: LNCaP human prostate cancer, DU145 human prostate cancer, PC3 human prostate cancer, MCF-7 human breast cancer, MDA-MB-231 human breast cancer, MDA-MB-468 human breast cancer, HT29 human colon cancer, K562 human myelogenous leukaemia, HepG2 human hepatoma, Hep3B human hepatoma, and LN229 human glioblastoma cancer cell lines were purchased from American Type Culture Collection (Manassas, Va.). OC24 human ascites ovarian cancer cell line was a generous gift from Dr. XXX (Johns Hopkins University, MD). LNCaP cell line was cultured in RPMI1640 medium supplemented with glucose (14 mM), pyruvate (1 mM), and fetal bovine serum (FBS) (10%). DU145 cell line was cultured in MEM supplemented with non-essential amino acids, glucose (21 mM), pyruvate (1 mM), and FBS (10%). PC3 cell line was cultured in F-12K medium supplemented with FBS (10%). MCF-7 cell line was cultured in DMEM supplemented with FBS (10%). OC24 cell line was cultured in RPMI1640 medium supplemented with FBS (10%) as suspension culture. MDA-MB-231 and 468 cell lines were cultured in Leibovitz's L15 medium supplemented with FBS (10%) under air. HT29 cell line was cultured in DMEM supplemented with glucose (25 mM) and FBS (10%). K562 cell line was cultured in RPMI1640 supplemented with FBS (10%). […] The signals were detected by western blot chemiluminescence reagent plus (New England Nuclear Life Science Products, Boston, Mass.). […]

SMILES: COc1ccc(C[C@@H](C)[C@@H](C)Cc2ccc(OC)c(OC)c2)cc1OC [M4N, Tetra-O-methyl nordihyroguaiaretic acid]
- autophagy (LC3B-II in the presence of Baflomycin A1) (LC3B-II [1]): blocks autophagy
- net LC3B-II formation (net autophagic activity) (LC3B-II [2]): almost totally suppressed
- toxicity in clinical trials [3]: fairly nontoxic
- HIF1α expression (HIF1α; 6 hr exposure to hypoxia): did not have much effect
- HIF1α expression (HIF1α; 18 hr exposure to hypoxia): reduced HIF1α expression
